Reference: PMC3505271 (Nature chemical biology, 2012)

Key:
AnaPS = AnaPS (Aspergillus fischeri, UniProt A1DN09); assay: amino acid-dependent ATP-[…]PPi exchange; assay type: biochemical; conditions: adenylation domain substrate; ATP co-substrate
TqaA = TqaA (Penicillium aethiopicum, UniProt F1CWE4); assay: amino acid-dependent ATP-[…]PPi exchange; assay type: biochemical; conditions: adenylation domain substrate; ATP co-substrate

AnaPS, sequence (A1DN09 whole entry, the tested form may be a part): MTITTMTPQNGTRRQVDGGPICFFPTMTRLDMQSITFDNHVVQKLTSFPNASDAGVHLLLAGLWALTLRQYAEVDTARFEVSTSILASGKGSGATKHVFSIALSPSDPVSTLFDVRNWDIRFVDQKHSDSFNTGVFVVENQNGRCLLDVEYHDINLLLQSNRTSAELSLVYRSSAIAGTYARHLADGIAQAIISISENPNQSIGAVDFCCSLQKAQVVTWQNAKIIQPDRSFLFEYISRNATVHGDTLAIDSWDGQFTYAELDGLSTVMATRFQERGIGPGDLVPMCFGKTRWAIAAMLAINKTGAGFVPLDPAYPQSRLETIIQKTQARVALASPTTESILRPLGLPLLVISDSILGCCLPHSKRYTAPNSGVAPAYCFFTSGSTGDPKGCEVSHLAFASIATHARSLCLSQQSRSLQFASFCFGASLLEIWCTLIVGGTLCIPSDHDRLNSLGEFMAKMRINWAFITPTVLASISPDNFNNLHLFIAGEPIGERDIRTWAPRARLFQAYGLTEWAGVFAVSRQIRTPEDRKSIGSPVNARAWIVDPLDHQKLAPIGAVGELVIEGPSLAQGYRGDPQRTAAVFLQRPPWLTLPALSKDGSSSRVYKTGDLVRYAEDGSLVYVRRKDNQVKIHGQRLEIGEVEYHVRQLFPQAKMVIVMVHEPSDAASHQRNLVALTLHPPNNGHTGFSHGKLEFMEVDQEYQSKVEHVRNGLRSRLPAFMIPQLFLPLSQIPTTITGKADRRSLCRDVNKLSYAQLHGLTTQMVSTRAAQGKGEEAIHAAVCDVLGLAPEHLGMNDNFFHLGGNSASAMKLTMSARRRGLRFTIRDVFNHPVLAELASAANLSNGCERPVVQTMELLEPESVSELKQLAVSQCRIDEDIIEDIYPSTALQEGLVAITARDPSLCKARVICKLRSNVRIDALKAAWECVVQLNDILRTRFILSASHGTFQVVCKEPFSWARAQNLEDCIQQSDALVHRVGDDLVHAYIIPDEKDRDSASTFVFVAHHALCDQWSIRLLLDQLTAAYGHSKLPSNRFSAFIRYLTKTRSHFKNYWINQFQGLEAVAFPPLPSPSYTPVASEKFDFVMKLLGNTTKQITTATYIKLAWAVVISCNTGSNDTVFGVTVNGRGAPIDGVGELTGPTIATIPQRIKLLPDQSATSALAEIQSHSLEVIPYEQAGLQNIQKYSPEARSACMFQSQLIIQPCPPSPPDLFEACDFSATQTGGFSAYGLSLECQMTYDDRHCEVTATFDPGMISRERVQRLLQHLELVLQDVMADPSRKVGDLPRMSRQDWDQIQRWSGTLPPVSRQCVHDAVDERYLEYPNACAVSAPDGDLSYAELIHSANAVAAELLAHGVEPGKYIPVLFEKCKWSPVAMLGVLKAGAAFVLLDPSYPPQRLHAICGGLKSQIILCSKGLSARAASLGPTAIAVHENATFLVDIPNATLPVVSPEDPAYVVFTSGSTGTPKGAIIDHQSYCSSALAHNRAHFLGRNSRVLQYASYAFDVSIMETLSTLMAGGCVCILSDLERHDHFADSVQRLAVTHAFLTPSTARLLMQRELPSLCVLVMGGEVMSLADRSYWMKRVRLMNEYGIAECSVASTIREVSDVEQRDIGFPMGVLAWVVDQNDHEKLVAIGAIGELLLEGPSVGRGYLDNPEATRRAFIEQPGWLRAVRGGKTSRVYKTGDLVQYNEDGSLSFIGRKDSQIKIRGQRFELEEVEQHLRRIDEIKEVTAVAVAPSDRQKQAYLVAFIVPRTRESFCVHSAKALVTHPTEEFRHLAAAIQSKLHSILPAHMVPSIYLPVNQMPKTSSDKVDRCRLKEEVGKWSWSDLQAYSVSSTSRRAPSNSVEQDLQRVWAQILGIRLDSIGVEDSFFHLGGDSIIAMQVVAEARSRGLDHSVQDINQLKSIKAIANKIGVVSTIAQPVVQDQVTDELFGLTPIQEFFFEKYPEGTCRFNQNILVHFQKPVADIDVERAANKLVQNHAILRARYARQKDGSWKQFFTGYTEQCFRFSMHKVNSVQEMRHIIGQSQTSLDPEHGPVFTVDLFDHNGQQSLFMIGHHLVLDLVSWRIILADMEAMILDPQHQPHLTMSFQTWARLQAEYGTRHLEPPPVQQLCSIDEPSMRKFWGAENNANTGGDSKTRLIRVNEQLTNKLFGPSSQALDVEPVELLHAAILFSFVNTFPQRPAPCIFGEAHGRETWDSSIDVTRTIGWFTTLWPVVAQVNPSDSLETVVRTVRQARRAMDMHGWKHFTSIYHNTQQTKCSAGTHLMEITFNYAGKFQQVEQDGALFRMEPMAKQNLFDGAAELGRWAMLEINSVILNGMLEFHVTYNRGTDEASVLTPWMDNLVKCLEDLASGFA

Row | SMILES | amino acid-dependent ATP-[32P]PPi exchange (AnaPS) | amino acid-dependent ATP-[32P]PPi exchange (TqaA)
1 | N[C@@H](Cc1c[nH]c2ccccc12)C(=O)O [L-tryptophan] | Similarly, AnaPS A domains activated Ant and L-Trp | 
2 | Nc1ccccc1C(=O)O [anthranilate] | Similarly, AnaPS A domains activated Ant and L-Trp | TqaA specifically activated the three building blocks Ant, L-Trp and L-Ala
